Experimental data published in PubChem BioAssay (NCI).
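Following 48 hours of exposure in 96-well plates, responses at five concentrations were used to interpolate endpoints linearly. TGI denotes the concentration required for complete inhibition of growth.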

Legend:
Assay in all cases: NCI-60 cell line screen, 48 h
OVCAR-5 ovarian = system: OVCAR-5 ovarian
SNB-75 CNS = system: SNB-75 CNS
OVCAR-4 ovarian = system: OVCAR-4 ovarian
NCI-H522 lung = system: NCI-H522 lung
HOP-92 NSCLC = system: HOP-92 NSCLC
UO-31 renal = system: UO-31 renal
IGROV1 ovarian = system: IGROV1 ovarian
NCI-H460 lung = system: NCI-H460 lung
MCF7 breast = system: MCF7 breast
MDA-MB-435 = system: MDA-MB-435
MDA-N = system: MDA-N
OVCAR-8 ovarian = system: OVCAR-8 ovarian
EKVX NSCLC = system: EKVX NSCLC
NCI/ADR-RES ovarian = system: NCI/ADR-RES ovarian
A498 renal = system: A498 renal
MOLT-4 leukemia = system: MOLT-4 leukemia
SW-620 colon = system: SW-620 colon
LOX IMVI melanoma = system: LOX IMVI melanoma
KM12 colon = system: KM12 colon
U251 CNS = system: U251 CNS
RXF 393 renal = system: RXF 393 renal
BT-549 breast = system: BT-549 breast
CAKI-1 renal = system: CAKI-1 renal
PC-3 prostate = system: PC-3 prostate
MALME-3M melanoma = system: MALME-3M melanoma
HCC-2998 colon = system: HCC-2998 colon
A549 NSCLC = system: A549 NSCLC
M14 melanoma = system: M14 melanoma
HT29 colon = system: HT29 colon
HS 578T breast = system: HS 578T breast
K-562 leukemia = system: K-562 leukemia
MDA-MB-231 breast = system: MDA-MB-231 breast
UACC-62 melanoma = system: UACC-62 melanoma
SF-268 CNS = system: SF-268 CNS
786-0 renal = system: 786-0 renal
HCT-116 colon = system: HCT-116 colon
OVCAR-3 ovarian = system: OVCAR-3 ovarian
SF-295 CNS = system: SF-295 CNS
DU-145 prostate = system: DU-145 prostate
SK-MEL-2 melanoma = system: SK-MEL-2 melanoma
CCRF-CEM leukemia = system: CCRF-CEM leukemia
COLO 205 colon = system: COLO 205 colon
SN12C renal = system: SN12C renal
HOP-62 NSCLC = system: HOP-62 NSCLC
HCT-15 colon = system: HCT-15 colon
TK-10 renal = system: TK-10 renal
T-47D breast = system: T-47D breast
NCI-H23 lung = system: NCI-H23 lung
SK-MEL-5 melanoma = system: SK-MEL-5 melanoma
SK-MEL-28 melanoma = system: SK-MEL-28 melanoma
UACC-257 melanoma = system: UACC-257 melanoma
SK-OV-3 ovarian = system: SK-OV-3 ovarian
SF-539 CNS = system: SF-539 CNS
ACHN renal = system: ACHN renal
SNB-19 CNS = system: SNB-19 CNS
NCI-H226 lung = system: NCI-H226 lung
RPMI-8226 leukemia = system: RPMI-8226 leukemia

Measured: TGI

CC(=O)C(C(C)=O)[C@H]1OC(C)(C)O[C@H]1[C@H]1COC(C)(C)O1
58.8 µM: SK-MEL-2 melanoma
90.5 µM: BT-549 breast
68.9 µM: PC-3 prostate
93.3 µM: NCI-H522 lung
79.9 µM: U251 CNS
89 µM: MDA-MB-231 breast
41.5 µM: SF-539 CNS
32.5 µM: COLO 205 colon
86 µM: HCC-2998 colon
not listed: NCI-H226 lung | RPMI-8226 leukemia
> 100 µM: all other assays above

COc1ccc(/C=N/Nc2nnc3c(n2)c2ccccc2c2nn(-c4ccccc4Cl)nc23)cc1
not listed: NCI-H460 lung | MCF7 breast | HCC-2998 colon | SF-539 CNS
> 100 µM: all other assays above
